Results on 41 compounds are retold here after patent US20120178765A1, “NOVEL GLUCOKINASE ACTIVATORS AND PROCESSES FOR THE PREPARATION THEREOF” (YUHAN CORPORATION, priority 2009, published 2012).

Counter-ions that a name gives are not always drawn.

This test addresses T1, Glucokinase (Homo sapiens, UniProt P35557).
T1 construct: purchased ProteinOne Inc
T1 sequence (P35557 1-465): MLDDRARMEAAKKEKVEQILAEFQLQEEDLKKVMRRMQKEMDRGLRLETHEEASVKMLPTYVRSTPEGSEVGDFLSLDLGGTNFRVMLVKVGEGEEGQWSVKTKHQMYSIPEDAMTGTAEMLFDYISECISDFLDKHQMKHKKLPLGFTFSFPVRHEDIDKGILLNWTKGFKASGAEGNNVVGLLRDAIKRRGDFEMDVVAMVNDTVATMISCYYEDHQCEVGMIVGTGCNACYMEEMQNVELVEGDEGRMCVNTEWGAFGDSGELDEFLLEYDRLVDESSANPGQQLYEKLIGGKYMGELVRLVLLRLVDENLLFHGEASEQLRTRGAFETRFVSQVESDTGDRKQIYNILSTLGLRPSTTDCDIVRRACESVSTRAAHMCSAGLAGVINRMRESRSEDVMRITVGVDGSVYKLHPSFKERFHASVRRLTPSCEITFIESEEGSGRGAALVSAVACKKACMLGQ
The test is described as follows: Glucokinase activation assay (NADPH absorbance at 340 nm). In kind it is biochemical. Conditions: glucokinase (ProteinOne Inc.), 5 mM D(+)-glucose, 24° C., 90 minutes. A digest of the protocol:
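Glucokinase (100 ng/uL) coupled to G6PDH in 25 mM HEPES pH 7 with 5 mM D(+)-glucose, 1 mM ATP, 1 mM NADP; compounds added.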
“3-[trans-2-(2,4-difluorophenyl)vinyl]-5-(2-methoxy-(1S)-methyl-ethoxy)-N-(5-fluorothiazol-2-yl)-benzamide [Example 25]” registered an EC50 of 70.2 nM.

“3-[trans-2-(2,5-difluorophenyl)vinyl]-5-(2-methoxy-(1S)-methyl-ethoxy)-N-(1-methyl-1H-pyrazol-3-yl)-benzamide [Example 36]” had a half-maximal effective concentration (EC50) of 200 nM.

Take “3-[2-(3-butyrylaminophenyl)ethyl]-5-(2-methoxy-(1S)-methyl-ethoxy)-N-(thiazol-2-yl)-benzamide [Example 119]”: the EC50 worked out at 370 nM.

In the case of “3-[2-(4-methoxyphenyl)ethyl]-5-(2-methoxy-(1S)-methyl-ethoxy)-N-(1-methyl-1H-pyrazol-3-yl)-benzamide [Example 100]”, the concentration for a half-maximal effect (EC50) is 314 nM.

In turn, `COC[C@H](C)Oc1cc(CCc2ccccc2OC)cc(C(=O)Nc2ccn(C)n2)c1` [Example 93, 3-[2-(2-methoxyphenyl)ethyl]-5-(2-methoxy-(1S)-methyl-ethoxy)-N-(1-methyl-1-pyrazol-3-yl)-benzamide] yielded an EC50 of 135 nM.

On to `CCOC(=O)Nc1cccc(CCc2cc(O[C@@H](C)COC)cc(C(=O)Nc3nccs3)c2)c1` [Example 122, 3-{2-[3-(carbamic acid ethyl ester)phenyl]ethyl}-5-(2-methoxy-(1S)-methyl-ethoxy)-N-(thiazol-2-yl)-benzamide], for which the concentration for a half-maximal effect (EC50) stood at 205 nM.

As to “3-[2-(4-fluorophenyl)ethyl]-5-(2-methoxy-(1S)-methyl-ethoxy)-N-(pyrazin-2-yl)-benz amide [Example 108]”, the concentration for a half-maximal effect (EC50) came to 465 nM.

Regarding “3-[trans-2-(4-fluorophenyl)vinyl]-5-(2-methoxy-(1S)-methyl-ethoxy)-N-(1-methyl-1H-pyrazol-3-yl)-benzamide [Example 39]”, the EC50 was determined as 119 nM.

“3-[trans-2-(3-chlorophenyl)vinyl]-5-(2-methoxy-(1S)-methyl-ethoxy)-N-(pyrazin-2-yl)-benzamide [Example 54]” came in with a concentration for a half-maximal effect (EC50) of 382 nM.

`CC(C)Oc1cc(/C=C/c2ccccn2)cc(C(=O)Nc2ccc(C(=O)O)cn2)c1` [Comparative Example 1, reference compound] yielded an EC50 of 2450 nM.

Take `CC(C)COc1cc(/C=C/c2ccccc2[N+](=O)[O-])cc(C(=O)Nc2nccs2)c1` [Example 3, 3-[trans-2-(2-nitrophenyl)vinyl]-5-isobutoxy-N-(thiazol-2-yl)-benzamide]: a half-maximal response (EC50) required 90.2 nM.

In turn, “3-{2-[4-(3-methyl-butyrylamino)phenyl]ethyl}-5-(2-methoxy-(1S)-methyl-ethoxy)-N-(thiazol-2-yl)-benzamide [Example 134]” displayed a half-maximal effective concentration (EC50) of 355 nM.

In turn, “3-[2-(3-acetylaminophenyl)ethyl]-5-(2-methoxy-(1S)-methyl-ethoxy)-N-(thiazol-2-yl)-benzamide [Example 118]” registered a half-maximal effective concentration (EC50) of 208 nM.

The compound “3-[trans-2-(2-fluorophenyl)vinyl]-5-(2-methoxy-(1S)-methyl-ethoxy)-N-(5-fluorothiazol-2-yl)-benzamide [Example 22]” displayed an EC50 of 65.6 nM.

In turn, `COC[C@H](C)Oc1cc(/C=C/c2c(F)cccc2F)cc(C(=O)Nc2ccn(C)n2)c1` (stereo in doubt) [Example 37, 3-[trans-2-(2,6-difluorophenyl)vinyl]-5-(2-methoxy-(1S)-methyl-ethoxy)-N-(1-methyl-1H-pyrazol-3-yl)-benzamide] gave an EC50 of 161 nM.

Turning to “3-{2-[4-(4-chlorobenzoylamino)phenyl]ethyl}-5-(2-methoxy-(1S)-methyl-ethoxy)-N-(thiazol-2-yl)-benzamide [Example 140]”, a half-maximal response (EC50) required 440 nM.

“3-[trans-2-(3-chlorophenyl)vinyl]-5-(2-methoxy-(1S)-methyl-ethoxy)-N-(1-methyl-1H-pyrazol-3-yl)-benzamide [Example 47]” yielded an EC50 of 107 nM.

As to “3-[2-(4-benzoylaminophenyl)ethyl]-5-(2-methoxy-(1S)-methyl-ethoxy)-N-(thiazol-2-yl)-benzamide [Example 138]”, a half-maximal effect (EC50) was put at 292 nM.

For the compound “3-[trans-2-(2,6-dimethoxyphenyl)vinyl]-5-(2-methoxy-(1S)-methyl-ethoxy)-N-(5-fluorothiazol-2-yl)-benzamide [Example 29]”, the EC50 came out at 128 nM.

With `COC[C@H](C)Oc1cc(CCc2ccc(N)cc2)cc(C(=O)Nc2nccs2)c1` [Example 112, 3-[2-(4-aminophenyl)ethyl]-5-(2-methoxy-(1S)-methyl-ethoxy)-N-(thiazol-2-yl)-benzamide hydrochloride], the EC50 is 126 nM.

The compound `COC[C@H](C)Oc1cc(/C=C/c2ccccc2[N+](=O)[O-])cc(C(=O)Nc2nccs2)c1` [Example 13, 3-[trans-2-(2-nitrophenyl)vinyl]-5-(2-methoxy-(1S)-methyl-ethoxy)-N-(thiazol-2-yl)-benzamide] had an EC50 of 12.7 nM.

In turn, “3-[2-(2-methanesulfonylaminophenyl)ethyl]-5-(2-methoxy-(1S)-methyl-ethoxy)-N-(thiazol-2-yl)-benzamide [Example 113]” showed an EC50 of 72.1 nM.

“3-[trans-2-(3,5-dimethoxyphenyl)vinyl]-5-(2-methoxy-(1S)-methyl-ethoxy)-N-(pyrazin-2-yl)-benzamide [Example 50]” showed an EC50 of 311 nM.

Turning to `COc1ccc(/C=C/c2cc(OCC(C)C)cc(C(=O)Nc3nccs3)c2)cc1OC` [Example 4, 3-[trans-2-(3,4-dimethoxyphenyl)vinyl]-5-isobutoxy-N-(thiazol-2-yl)-benzamide], the midpoint of the response, the EC50, lay at 222 nM.

The compound “3-[trans-2-(2-methoxyphenyl)vinyl]-5-(2-methoxy-(1S)-methyl-ethoxy)-N-(thiazol-2-yl)-benzamide [Example 16]” displayed an EC50 of 8.4 nM.

In turn, “3-[2-(2,6-difluorophenyl)ethyl]-5-(2-methoxy-(1S)-methyl-ethoxy)-N-(thiazol-2-yl)-benzamide [Example 87]” showed an EC50 of 34.4 nM.

Consider “3-[2-(2-acetylaminophenyl)ethyl]-5-(2-methoxy-(1S)-methyl-ethoxy)-N-(thiazol-2-yl)benzamide [Example 116]”, for which the EC50 came to 318 nM.

In turn, “3-[2-(2,4-dimethoxyphenyl)ethyl]-5-(2-methoxy-(1S)-methyl-ethoxy)-N-(1-methyl-1H-pyrazol-3-yl)-benzamide [Example 104]” returned an EC50 of 223 nM.

As for “3-[trans-2-(2-nitrophenyl)vinyl]-5-(2-methoxy-(1S)-methyl-ethoxy)-N-(5-fluorothiazol-2-yl)-benzamide [Example 19]”, the EC50 was determined as 52.1 nM.

Take “3-[2-(3-benzoylaminophenyl)ethyl]-5-(2-methoxy-(1S)-methyl-ethoxy)-N-(thiazol-2-yl)-benzamide [Example 124]”: the response was half-maximal at 281 nM (EC50).

`COC[C@H](C)Oc1cc(/C=C/c2ccc(F)cc2)cc(C(=O)Nc2ccc(C(=O)O)cn2)c1` [Example 77, 3-[trans-2-(4-fluorophenyl)vinyl]-5-(2-methoxy-(1S)-methyl-ethoxy)-N-(nicotinic acid-6-yl)-benzamide] came in with an EC50 of 120 nM.

“3-[trans-2-(2,3-difluorophenyl)vinyl]-5-(2-methoxy-(1S)-methyl-ethoxy)-N-(thiazol-2-yl)-benzamide [Example 9]” gave an EC50 of 27.5 nM.

With “3-[2-(2-benzenesulfonylaminophenyl)ethyl]-5-(2-methoxy-(1S)-methyl-ethoxy)-N-(thiazol-2-yl)-benzamide [Example 115]”, it took 210 nM to reach a half-maximal effect (EC50).

In turn, “3-[trans-2-(3-fluorophenyl)vinyl]-5-(2-methoxy-(1S)-methyl-ethoxy)-N-(thiazol-2-yl)-benzamide [Example 7]” gave a concentration for a half-maximal effect (EC50) of 48.4 nM.

With `CCOC(=O)CC(=O)Nc1ccc(CCc2cc(O[C@@H](C)COC)cc(C(=O)Nc3nccs3)c2)cc1` [Example 135, 3-{2-[4-(malonamic acid ethyl ester)phenyl]ethyl}-5-(2-methoxy-(1S)-methyl-ethoxy)-N-(thiazol-2-yl)-benzamide], the concentration for a half-maximal effect (EC50) stood at 204 nM.

The compound “3-[2-(2-methoxyphenyl)ethyl]-5-(2-methoxy-(1S)-methyl-ethoxy)-N-(pyrazin-2-yl)-benzamide [Example 106]” registered a concentration giving a half-maximal response (EC50) of 304 nM.

With `COC[C@H](C)Oc1cc(/C=C/c2cc(F)ccc2F)cc(C(=O)Nc2ccc(C(=O)O)cn2)c1` [Example 80, 3-[trans-2-(2,5-difluorophenyl)vinyl]-5-(2-methoxy-(1S)-methyl-ethoxy)-N-(nicotinic acid-6-yl)-benzamide], the EC50 was determined as 134 nM.

For the compound “3-[trans-2-(3,5-dimethoxyphenyl)vinyl]-5-(2-methoxy-(1S)-methyl-ethoxy)-N-(5-fluorothiazol-2-yl)-benzamide [Example 31]”, the response was half-maximal at 47.3 nM (EC50).

`COC[C@H](C)Oc1cc(CCc2ccccc2NC(=O)Cc2cccs2)cc(C(=O)Nc2nccs2)c1` [Example 114] showed a concentration giving a half-maximal response (EC50) of 275 nM.

In the case of `COC[C@H](C)Oc1cc(/C=C/c2cccc([N+](=O)[O-])c2)cc(C(=O)Nc2ccn(C)n2)c1` [Example 38, 3-[trans-2-(3-nitrophenyl)vinyl]-5-(2-methoxy-(1S)-methyl-ethoxy)-N-(1-methyl-H-pyrazol-3-yl)-benzamide], the midpoint of the response, the EC50, lay at 239 nM.

On to “3-{2-[3-(3-phenyl-ureido)phenyl]ethyl}-5-(2-methoxy-(1S)-methyl-ethoxy)-N-(thiazol-2-yl)-benzamide [Example 130]”, for which it took 227 nM to reach a half-maximal effect (EC50).

The EC50 is the midpoint of the concentration-response curve.
